Molecules are shown by their SMILES.

Consider 22 compounds from patent publication US8524702B2, “Substituted benzoazepines as toll-like receptor modulators” (VentiRx Pharmaceuticals, Inc., priority 2009, dated 2013).

The target of the test is T1, TLR8 (Homo sapiens, UniProt Q9NR97).
T1 sequence (Q9NR97 27-1041): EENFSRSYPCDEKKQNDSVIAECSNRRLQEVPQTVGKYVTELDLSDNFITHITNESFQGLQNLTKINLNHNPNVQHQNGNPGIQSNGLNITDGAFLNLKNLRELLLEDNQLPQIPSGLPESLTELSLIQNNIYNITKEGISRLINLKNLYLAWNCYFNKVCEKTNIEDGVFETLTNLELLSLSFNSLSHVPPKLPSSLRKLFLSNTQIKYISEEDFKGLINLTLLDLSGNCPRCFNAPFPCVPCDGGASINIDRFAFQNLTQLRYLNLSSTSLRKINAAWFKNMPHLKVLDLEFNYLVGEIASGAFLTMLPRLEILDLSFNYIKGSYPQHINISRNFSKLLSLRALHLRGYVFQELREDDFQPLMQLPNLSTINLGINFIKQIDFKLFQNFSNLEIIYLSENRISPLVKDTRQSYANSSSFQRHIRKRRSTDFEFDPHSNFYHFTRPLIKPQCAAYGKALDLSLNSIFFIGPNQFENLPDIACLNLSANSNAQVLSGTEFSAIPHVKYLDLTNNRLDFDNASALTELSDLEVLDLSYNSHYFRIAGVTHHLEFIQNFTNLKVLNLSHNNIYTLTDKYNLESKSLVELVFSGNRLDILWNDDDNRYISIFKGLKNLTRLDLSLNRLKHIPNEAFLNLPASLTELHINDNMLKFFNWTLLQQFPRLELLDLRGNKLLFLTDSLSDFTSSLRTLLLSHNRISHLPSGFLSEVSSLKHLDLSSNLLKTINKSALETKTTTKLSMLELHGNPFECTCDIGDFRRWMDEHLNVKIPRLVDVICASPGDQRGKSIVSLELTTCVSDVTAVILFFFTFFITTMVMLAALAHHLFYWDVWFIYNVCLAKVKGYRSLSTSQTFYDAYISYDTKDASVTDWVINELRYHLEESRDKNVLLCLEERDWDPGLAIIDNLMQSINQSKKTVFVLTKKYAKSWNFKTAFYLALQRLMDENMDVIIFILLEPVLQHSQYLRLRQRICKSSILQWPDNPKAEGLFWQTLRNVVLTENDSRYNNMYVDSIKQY
The experiment in a line: PBMC assay for TLR8 (TNFα in supernatants by ELISA). In kind it is cell-based. The arrangement: Peripheral blood mononuclear cells (PBMCs) from human blood were isolated; endogenous in cells; host or cells: human PBMCs. Particulars: human PBMCs incubated with compound overnight, MC50 = concentration at which 50% of the maximum induction is seen. Here is the method:
Peripheral blood mononuclear cells (PBMCs) from human blood were isolated using BD Vacutainer Cell Preparation Tubes with sodium citrate. Cells were incubated with compound overnight. TLR8 activity was assayed by measuring the amount of TNFα in supernatants by ELISA. TLR7 activity was assayed by measuring the amount of IFNα in supernatants by ELISA (R&D Systems). […] The results of this assay are shown below in Tables 2 and 3.
MC50 numbers are represented as factors of ten, for example, + indicates an MC50 value of ×10^4, or a value in the tens of thousands of nanomolar (nM range); ++ indicates an MC50 value of ×10^3, or a value in the thousands; +++ indicates an MC50 value of ×10^2, or a value in the hundreds; and ++++ indicates an MC50 value of ×10^1 or 10°, or a value in the tens or ones.
(An ELISA detects its analyte on a solid surface through an enzyme-linked reagent.)
Consider `NC1=Nc2cc(-c3ccc(C(=O)N4CCCC4)cc3)ccc2C=C(C(=O)N2CCCCC2)C1` [Compound 122, (4-((1E,4E)-2-amino-4-(piperidine-1-carbonyl)-3H-benzo[b]azepin-8-yl)phenyl)(pyrrolidin-1-yl)methanone], for which the EC50 was in the range of 1000 to 10000 nM.
Take `CCCN(CCC)C(=O)C1=Cc2ccc(-c3ccc(C(=O)N4C[C@@H](O)[C@H](O)C4)cc3)cc2N=C(N)C1` [Compound 130, (1E,4E)-2-amino-8-(4-((3R,4R)-3,4-dihydroxypyrrolidine-1-carbonyl)phenyl)-N,N-dipropyl-3H-benzo[b]azepine-4-carboxamide]: the EC50 is 100 to 1000 nM.
To `CCCN(C(=O)C1=Cc2ccc(-c3ccc(C(=O)N4CCCC4)cc3)cc2N=C(N)C1)C(C)CC` (stereo not shown) [Compound 102, (1E,4E)-2-amino-N-sec-butyl-N-propyl-8-(4-(pyrrolidine-1-carbonyl)phenyl)-3H-benzo[b]azepine-4-carboxamide] belongs 100 to 1000 nM; to `CCCN(CCO)C(=O)C1=Cc2ccc(-c3ccc(C(=O)N4CCCC4)cc3)cc2N=C(N)C1` [Compound 107, (1E,4E)-2-amino-N-(2-hydroxyethyl)-N-propyl-8-(4-(pyrrolidine-1-carbonyl)phenyl)-3H-benzo[b]azepine-4-carboxamide], 1 to 100 nM.
Under `CCCNC(=O)C1=Cc2ccc(-c3ccc(C(=O)N4CCCC4)cc3)cc2N=C(N)C1` [Compound 101, (1E,4E)-2-amino-N-propyl-8-(4-(pyrrolidine-1-carbonyl)phenyl)-3H-benzo[b]azepine-4-carboxamide] stands 100 to 1000 nM; under `CCCN(CCC)C(=O)C1=Cc2ccc(-c3cccc(C(=O)O)c3)cc2N=C(N)C1` [Compound 186, 3-((1E,4E)-2-amino-4-(dipropylcarbamoyl)-3H-benzo[b]azepin-8-yl)benzoic acid], 10000 to 100000 nM.
Take `CCCN(CCCF)C(=O)C1=Cc2ccc(-c3ccc(C(=O)N4CCCC4)cc3)cc2N=C(N)C1` [Compound 202, (1E,4E)-2-Amino-N-(3-fluoropropyl)-N-propyl-8-(4-(pyrrolidine-1-carbonyl)phenyl)-3H-benzo[b]azepine-4-carboxamide]: the EC50 fell in the range of 100 to 1000 nM.
Under `CCCN(CCC)C(=O)C1=Cc2ccc(-c3ccc(C(=O)N4C[C@H](O)[C@@H](O)C4)cc3)cc2N=C(N)C1` [Compound 129, (1E,4E)-2-amino-8-(4-((3S,4S)-3,4-dihydroxypyrrolidine-1-carbonyl)phenyl)-N,N-dipropyl-3H-benzo[b]azepine-4-carboxamide] stands 100 to 1000 nM; under `NC1=Nc2cc(-c3ccc(C(=O)N4CCCC4)cc3)ccc2C=C(C(=O)N2CCCC2)C1` [Compound 121, (4-((1E,4E)-2-amino-4-(pyrrolidine-1-carbonyl)-3H-benzo[b]azepin-8-yl)phenyl)(pyrrolidin-1-yl)methanone], 10000 to 100000 nM.
Consider `COCCN(CCOC)C(=O)C1=Cc2ccc(-c3ccc(C(=O)N4CCCC4)cc3)cc2N=C(N)C1` [Compound 120, (1E,4E)-2-amino-N,N-bis(2-methoxyethyl)-8-(4-(pyrrolidine-1-carbonyl)phenyl)-3H-benzo[b]azepine-4-carboxamide], for which the concentration for a half-maximal effect (EC50) lay within 1000 to 10000 nM.
Under `NC1=Nc2cc(-c3ccc(C(=O)N4CCCC4)cc3)ccc2C=C(C(=O)N(C2CCNCC2)C2CC2)C1` [Compound 115, (1E,4E)-2-amino-N-cyclopropyl-N-(piperidin-4-yl)-8-(4-(pyrrolidine-1-carbonyl)phenyl)-3H-benzo[b]azepine-4-carboxamide] stands 1000 to 10000 nM.
With `CCCN(CCNS(C)(=O)=O)C(=O)C1=Cc2ccc(-c3ccc(C(=O)N4CCCC4)cc3)cc2N=C(N)C1` [Compound 176, (1E,4E)-2-amino-N-(2-(methylsulfonamido)ethyl)-N-propyl-8-(4-(pyrrolidine-1-carbonyl)phenyl)-3H-benzo[b]azepine-4-carboxamide], the EC50 was 1000 to 10000 nM.
`CCCN(CC(O)CO)C(=O)C1=Cc2ccc(-c3ccc(C(=O)N4CCCC4)cc3)cc2N=C(N)C1` (stereo not shown) [Compound 110, (1E,4E)-2-amino-N-(2,3-dihydroxypropyl)-N-propyl-8-(4-(pyrrolidine-1-carbonyl)phenyl)-3H-benzo[b]azepine-4-carboxamide]: the EC50 was in the range of 1000 to 10000 nM.
Under `CCOC(=O)C1=Cc2ccc(-c3cccc(C#N)c3)cc2N=C(N)C1` [Compound 145, (1E,4E)-ethyl 2-amino-8-(3-cyanophenyl)-3H-benzo[b]azepine-4-carboxylate] stands 1 to 100 nM; under `CCOC(=O)C1=Cc2ccc(-c3ccc(C(=O)N4CCCCC4)cc3)cc2N=C(N)C1` [Compound 156, (1E,4E)-ethyl 2-amino-8-(4-(piperidine-1-carbonyl)phenyl)-3H-benzo[b]azepine-4-carboxylate], 100 to 1000 nM; under `CCCN(CCC)C(=O)C1=Cc2ccc(-c3cccc(C(=O)OCC)c3)cc2N=C(N)C1` [Compound 187, Ethyl 3-((1E,4E)-2-amino-4-(dipropylcarbamoyl)-3H-benzo[b]azepin-8-yl)benzoate], 100 to 1000 nM.
To `CCOC(=O)C1=Cc2ccc(-c3ccccn3)cc2N=C(N)C1` [Compound 141, (1E,4E)-ethyl 2-amino-8-(pyridin-2-yl)-3H-benzo[b]azepine-4-carboxylate] belongs 100 to 1000 nM; to `CCOC(=O)C1=Cc2ccc(-c3ccc(C(=O)N(CC)CC)cc3)cc2N=C(N)C1` [Compound 155, (1E,4E)-ethyl 2-amino-8-(4-(diethylcarbamoyl)phenyl)-3H-benzo[b]azepine-4-carboxylate], 100 to 1000 nM.
As to `CCCN(CCC)C(=O)C1=Cc2ccc(-c3ccc(C(=O)O)cc3)cc2N=C(N)C1` [Compound 188, 4-((1E,4E)-2-amino-4-(dipropylcarbamoyl)-3H-benzo[b]azepin-8-yl)benzoic acid], the 50% effective concentration (EC50) was 1000 to 10000 nM.
To `CCCN(CCCO)C(=O)C1=Cc2ccc(-c3ccc(C(=O)O)cc3)cc2N=C(N)C1` [Compound 209, 4-((1E,4E)-2-Amino-4-((3-hydroxypropyl)(propyl)carbamoyl)-3H-benzo[b]azepin-8-yl)benzoic acid] belongs 10000 to 100000 nM; to `CCOC(=O)C1=Cc2ccc(-c3ccc(C#N)cc3)cc2N=C(N)C1` [Compound 146, (1E,4E)-ethyl 2-amino-8-(4-cyanophenyl)-3H-benzo[b]azepine-4-carboxylate], 100 to 1000 nM.
To `CCCN(CCCF)C(=O)C1=Cc2ccc(-c3ccc(C(=O)OCC)cc3)cc2N=C(N)C1` [Compound 208, Ethyl 4-((1E,4E)-2-amino-4-((3-fluoropropyl)(propyl)carbamoyl)-3H-benzo[b]azepin-8-yl)benzoate] belongs 1000 to 10000 nM.

In general, EC50 refers to the midpoint of the concentration-response curve.
